Test results published in EPA's ToxRefDB 2.

Legend:
rat [1] = settings: Subchronic oral toxicity in rodents, fischer, Gavage/Intubation, dose end: 3 month, group: systemic
mouse [2] = settings: Subchronic oral toxicity in rodents, b6c3f1, Gavage/Intubation, dose end: 3 month, group: systemic
rat [3] = settings: Combined chronic toxicity/carcinogenicity, sprague dawley, Oral, Feed, dose end: 24 month, group: systemic
mouse [4] = settings: Carcinogenicity; cd1; Oral; Feed; dose end: 24 month; group: systemic; systemic / in life observation / body weight / body weight + systemic / pathology microscopic / kidney / basophilia + systemic / pathology …
rat [5] = settings: Multigenerational reproductive toxicity study, sprague dawley, Oral, Feed, dose end: 2 generation
rat [6] = settings: Prenatal developmental toxicity study, sprague dawley, Oral, Gavage/Intubation, dose end: 19 GD
rat [7] = settings: Subchronic oral toxicity in rodents, sprague dawley, Feed, dose end: 3 month, group: systemic, systemic / clinical chemistry / glucose / glucose + systemic / clinical chemistry / phosphorus / phosphorus + systemic / clinical chemistry…
rat [8] = settings: Multigenerational reproductive toxicity study, other, Oral, Feed, dose end: 2 generation
dog [9] = settings: Chronic toxicity; beagle; Oral; Feed; dose end: 1 year; group: systemic; systemic / organ weight / kidney / absolute + systemic / pathology gross / liver / enlarged + systemic / pathology microscopic / epididymis…
rat [10] = settings: Subchronic oral toxicity in rodents, other, Feed, dose end: 90 day, group: systemic
rat [11] = settings: Combined chronic toxicity/carcinogenicity, sprague dawley, Oral, Feed, dose end: 2 year, group: systemic
mouse [12] = settings: Carcinogenicity, cd1, Oral, Feed, dose end: 18 month, group: systemic
dog [13] = settings: Subchronic oral toxicity in nonrodent, beagle, Feed, dose end: 90 day, group: systemic
[14] = systemic / clinical chemistry / alanine aminotransferase (alt/sgpt) / alanine aminotransferase (alt/sgpt) + systemic / clinical chemistry / …
[15] = systemic / pathology microscopic / liver / hyperplasia + systemic / pathology microscopic / liver / inflammation + systemic / hematology / …
[16] = systemic / in life observation / body weight / body weight + systemic / in life observation / body weight / body weight gain + systemic / in…
[17] = systemic / pathology microscopic / stomach / inflammation
[18] = systemic / pathology microscopic / stomach / inflammation + systemic / in life observation / body weight / body weight + systemic / in life …
[19] = group: offspring, systemic / in life observation / body weight / offspring (pup) weight + systemic / in life observation / body weight / offspring (pup) …
[20] = group: parental, systemic / in life observation / body weight / body weight + systemic / in life observation / clinical signs / soft stools
[21] = group: parental, systemic / in life observation / body weight / body weight + systemic / in life observation / clinical signs / soft stools + systemic / in …
[22] = group: developmental, developmental / developmental malformation / bone / unossified + systemic / in life observation / body weight / fetal weight
[23] = group: maternal, systemic / in life observation / body weight / body weight gain + systemic / in life observation / clinical signs / defecation (diarrhea) + …
[24] = group: offspring, systemic / in life observation / body weight / offspring (pup) weight + systemic / in life observation / clinical signs / reduced body size
[25] = group: parental, systemic / in life observation / body weight / body weight gain
[26] = group: reproductive, reproductive / reproductive performance / gestational length / gestational length
[27] = systemic / in life observation / body weight / body weight gain + systemic / organ weight / liver / relative to body weight + systemic / …
[28] = systemic / in life observation / body weight / body weight + systemic / pathology microscopic / stomach / cyst + systemic / pathology …
[29] = systemic / urinalysis / specific gravity/osmolality / specific gravity/osmolality + systemic / urinalysis / volume / volume

C=CCc1ccc(OC)cc1 [Estragole]
LOAEL (rat [1]; [14]): > 600 mg/kg/day
NOAEL (rat [1]; [14]): ≥ 600 mg/kg/day
LEL (rat [1]; [15]): 37.5 mg/kg/day
NEL (rat [1]; [15]): < 37.5 mg/kg/day
LOAEL (mouse [2]; [16]): > 600 mg/kg/day
NEL (mouse [2]; [16]): 37.5 mg/kg/day
NOAEL (mouse [2]; [16]): ≥ 600 mg/kg/day
LEL (mouse [2]; systemic / in life observation / body weight / body weight + systemic / in life observation / body weight / body weight gain + systemic / …): 75 mg/kg/day

O=C(O)CNCP(=O)(O)O [Glyphosate]
LEL (rat [3]; [17]): 457 mg/kg/day
LOAEL (rat [3]; [17]): 457 mg/kg/day
NEL (rat [3]; [18]): 113 mg/kg/day
NOAEL (rat [3]; [18]): 113 mg/kg/day
LEL (mouse [4]): 4500 mg/kg/day
LOAEL (mouse [4]): 4500 mg/kg/day
NEL (mouse [4]): 750 mg/kg/day
NOAEL (mouse [4]): 750 mg/kg/day
LEL (rat [5]; [19]): 1500 mg/kg/day
LOAEL (rat [5]; [19]): 1500 mg/kg/day
NEL (rat [5]; [19]): 500 mg/kg/day
NOAEL (rat [5]; [19]): 500 mg/kg/day
NEL (rat [5]; [20]): 500 mg/kg/day
NOAEL (rat [5]; [20]): 500 mg/kg/day
LEL (rat [5]; [21]): 1500 mg/kg/day
LOAEL (rat [5]; [21]): 1500 mg/kg/day
LEL (rat [6]; [22]): 3500 mg/kg/day
LOAEL (rat [6]; [22]): 3500 mg/kg/day
NEL (rat [6]; [22]): 1000 mg/kg/day
NOAEL (rat [6]; [22]): 1000 mg/kg/day
LEL (rat [6]; [23]): 3500 mg/kg/day
LOAEL (rat [6]; [23]): 3500 mg/kg/day
NEL (rat [6]; [23]): 1000 mg/kg/day
NOAEL (rat [6]; [23]): 1000 mg/kg/day
LEL (rat [7]): 63 mg/kg/day
LOAEL (rat [7]): > 1270 mg/kg/day
NEL (rat [7]): < 63 mg/kg/day
NOAEL (rat [7]): ≥ 1270 mg/kg/day

CCS(=O)(=O)c1cccnc1S(=O)(=O)NC(=O)Nc1nc(OC)cc(OC)n1 [Rimsulfuron]
LEL (rat [8]; [24]): 1320 mg/kg/day
LOAEL (rat [8]; [24]): 1320 mg/kg/day
NEL (rat [8]; [24]): 264 mg/kg/day
NOAEL (rat [8]; [24]): 264 mg/kg/day
LEL (rat [8]; [25]): 830 mg/kg/day
LOAEL (rat [8]; [25]): 830 mg/kg/day
NEL (rat [8]; [25]): 165 mg/kg/day
NOAEL (rat [8]; [25]): 165 mg/kg/day
LEL (rat [8]; [26]): 1020 mg/kg/day
LOAEL (rat [8]; [26]): > 1020 mg/kg/day
NEL (rat [8]; [26]): 204 mg/kg/day
NOAEL (rat [8]; [26]): ≥ 1020 mg/kg/day
LEL (dog [9]): 81.8 mg/kg/day
LOAEL (dog [9]): 81.8 mg/kg/day
NEL (dog [9]): 1.6 mg/kg/day
NOAEL (dog [9]): 1.6 mg/kg/day
LEL (rat [10]; [14]): 3.35 mg/kg/day
NEL (rat [10]; [14]): < 3.35 mg/kg/day
NOAEL (rat [10]; [14]): 102 mg/kg/day
LOAEL (rat [10]; systemic / in life observation / body weight / body weight gain): 495 mg/kg/day
LEL (rat [11]; systemic / clinical chemistry / alkaline phosphatase (alp/alk) / alkaline phosphatase (alp/alk)): 11.8 mg/kg/day
LOAEL (rat [11]; systemic / in life observation / body weight / body weight gain + systemic / organ weight / liver / relative to body weight): 121 mg/kg/day
NEL (rat [11]; [27]): 1 mg/kg/day
NOAEL (rat [11]; [27]): 11.8 mg/kg/day
LOAEL (mouse [12]; [28]): 1130 mg/kg/day
NEL (mouse [12]; [28]): 3.47 mg/kg/day
NOAEL (mouse [12]; [28]): 351 mg/kg/day
LEL (mouse [12]; systemic / pathology microscopic / testes / degeneration): 35.5 mg/kg/day
LEL (dog [13]; [29]): 6.25 mg/kg/day
LOAEL (dog [13]; [29]): 125 mg/kg/day
NEL (dog [13]; [29]): < 6.25 mg/kg/day
NOAEL (dog [13]; systemic / urinalysis / specific gravity/osmolality / specific gravity/osmolality + systemic / urinalysis / volume / volume + systemic / …): 6.25 mg/kg/day
